Tests used:
[1] = tested on: B16(F0) cells; experiment: Sensitivity of transfected B16(F0) clones to 5-FC and 5-FU (LD50, trypan blue); assay type: cell-based, mouse; details: 6 days with drug
Protocol: The sensitivities of the different clones to 5-FC and 5-FU are also tested after incubating in the presence of the drugs for 6 days. The following values are the means of four counts (using trypan blue) of cell mortality.

[2] = tested on: B16(F0) cells; experiment: Bystander effect: mixtures of untransfected and pCI-neoFCU1-transfected B16(F0) clones with 5-FC; assay type: cell-based, mouse; details: B16/B16 pCI-neoFCU1 100%/0%, 4 days
Protocol: These clone mixtures were then tested in the presence of different concentrations of 5-FC. Cell mortality (using trypan blue) is assessed after culturing for 4 days in the presence of 5-FC.

[3] = tested on: PANC-1; experiment: LD50 of 5-FC and 5-FU on adenovirus-infected PANC-1 cells (MOI 5); assay type: cell-based, human; details: PANC-1, mock-infected, 6 days
Protocol: (§1) The LD50 values for 5-FC and 5-FU are determined vis-a-vis the three human tumor cell lines infected with the different viruses (Ad null, Ad.CMV-FCY1, Ad.CMV-FUR1A1Δ105 and Ad.CMV-FCU1) or coinfected with the adenoviruses expressing the FCY1 and FUR1Δ105 genes. The cells are infected at an MOI of 5 and then cultured in the presence of different concentrations of 5-FC and 5-FU. After 6 days of culture, the viability of the cells is determined using trypan blue. The LD50 values listed in Table 6 are the means of four counts.

[4] = tested on: SK-BR-3; experiment: LD50 of 5-FC and 5-FU on adenovirus-infected SK-BR-3 cells (MOI 5); assay type: cell-based, human; details: SK-BR-3, mock-infected, 6 days
Protocol: as §1

[5] = tested on: SW480; experiment: LD50 of 5-FC and 5-FU on adenovirus-infected SW480 cells (MOI 5); assay type: cell-based, human; details: 6 days
Protocol: as §1

SMILES	LD50 for 5-FC, untransfected cells [1]	LD50 (μM) + 5-FC [2]	LD50 (μM) 5-FC, Mock [3]	LD50 (μM) 5-FC, Mock [4]	LD50 (μM) 5-FC, Mock [5]	LD50 (μM) 5-FU, Mock [3]	LD50 (μM) 5-FU, Mock [4]	LD50 (μM) 5-FU, Mock [5]
Nc1nc(=O)[nH]cc1F [5-FC, 5-fluorocytosine]	1000 µM	5000 µM	10,000 μM	5000 µM	5000 µM			
O=c1[nH]cc(F)c(=O)[nH]1 [5-FU, 5-fluorouracil]						0.3 µM	0.1 µM	0.5 µM
